Results taken from ChEMBL document CHEMBL1201862, “PubChem BioAssay data set” (2004).
Active and inactive are the calls of the source.

Legend:
[1] = target: T1, Endoribonuclease toxin MazF (Escherichia coli K-12, UniProt P0AE70); assay: activation of MazEF endoribonuclease cleavage – biochemical, fluorescence, single-stranded RNA substrate, uHTS hits, dose response (AID 588481); assay type: functional
T1 sequence (P0AE70 whole entry): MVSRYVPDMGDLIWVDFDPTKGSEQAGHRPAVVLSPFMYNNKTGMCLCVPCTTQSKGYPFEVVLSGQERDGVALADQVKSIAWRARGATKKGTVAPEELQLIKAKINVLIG

[2] = tested on: Streptococcus; assay: GAS UMAA2166 growth inhibition – luminescence, BacTiterGlo, counter-screen for streptokinase expression inhibitor project, dose response (AID 1915); assay type: functional, organism-based;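 note: potency for reduction of bacterial viability or growth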
[3] = A cytotoxicity screen of small molecule inhibitors of the PhoP region in Salmonella typhi identified in the primary screen. [Related pubchem assays: 1850, 1864, 1985 ]; assay type: functional
[4] = target: T2, DNA repair protein RAD52 homolog (Homo sapiens, UniProt P43351); assay type: functional, biochemical
T2 sequence (P43351 whole entry): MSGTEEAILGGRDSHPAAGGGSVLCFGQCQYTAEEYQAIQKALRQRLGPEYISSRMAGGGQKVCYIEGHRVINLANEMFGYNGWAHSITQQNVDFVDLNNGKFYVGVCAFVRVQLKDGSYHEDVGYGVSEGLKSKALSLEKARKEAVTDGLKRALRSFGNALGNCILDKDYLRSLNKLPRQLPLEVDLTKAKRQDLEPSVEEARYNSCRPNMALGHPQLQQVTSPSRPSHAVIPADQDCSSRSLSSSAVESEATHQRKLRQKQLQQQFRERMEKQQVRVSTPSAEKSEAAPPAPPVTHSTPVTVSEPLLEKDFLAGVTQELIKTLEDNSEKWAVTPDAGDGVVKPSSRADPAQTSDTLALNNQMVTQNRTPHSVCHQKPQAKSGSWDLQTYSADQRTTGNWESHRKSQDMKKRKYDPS

[5] = tested on: Escherichia coli; assay: microbe, parasite or virus in culture
[6] = target: T1, Endoribonuclease toxin MazF; assay: substrate-only fluorescence increase artefacts – biochemical, single-stranded RNase substrate, counter-screen for MazEF activator project, dose response (AID 588502); assay type: functional
[7] = target: T3, Ubiquitin-conjugating enzyme E2 N (Homo sapiens, UniProt P61088); assay type: functional
T3 sequence (P61088 whole entry): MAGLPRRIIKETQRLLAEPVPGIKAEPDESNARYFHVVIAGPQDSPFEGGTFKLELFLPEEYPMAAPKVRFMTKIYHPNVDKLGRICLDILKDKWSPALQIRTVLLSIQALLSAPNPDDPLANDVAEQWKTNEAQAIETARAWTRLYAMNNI

[8] = target: T3, Ubiquitin-conjugating enzyme E2 N; assay type: functional; remark: listed apart in the source
[9] = NIH-3T3 fibroblast cytotoxicity, dose response, cytotoxicity control, cell-based, fluorescence, Alamar Blue, secondary assay (AID 2327); assay type: functional;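 note: NIH-3T3 mouse fibroblasts cultured with fluconazole at 8 µg/mL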
[10] = target: T4, Streptokinase A (Streptococcus pyogenes serotype M1, UniProt P10520); assay: viability-normalized secreted streptokinase activity reduction – plasminogen activation absorbance, OD405, dose response (AID 1914); assay type: functional, Streptococcus pyogenes M1 GAS;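 note: secreted streptokinase activity via plasminogen activation per viability signal from cell pellet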
T4 sequence (P10520 whole entry): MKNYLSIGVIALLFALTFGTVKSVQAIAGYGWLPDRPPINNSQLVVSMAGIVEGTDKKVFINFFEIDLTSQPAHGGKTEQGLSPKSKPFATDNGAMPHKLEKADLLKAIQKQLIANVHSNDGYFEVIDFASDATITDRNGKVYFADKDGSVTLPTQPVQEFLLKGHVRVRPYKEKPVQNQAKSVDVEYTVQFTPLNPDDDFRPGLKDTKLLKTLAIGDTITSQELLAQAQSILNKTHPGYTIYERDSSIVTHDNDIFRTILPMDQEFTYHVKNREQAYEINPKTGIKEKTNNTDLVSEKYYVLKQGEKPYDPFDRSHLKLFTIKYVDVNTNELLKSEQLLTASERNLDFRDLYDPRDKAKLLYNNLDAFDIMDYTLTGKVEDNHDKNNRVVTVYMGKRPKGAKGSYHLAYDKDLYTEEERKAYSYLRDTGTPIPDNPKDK

[11] = target: Trypsin (Sus scrofa, UniProt P00761); assay: trypsin protease activity blockade – biochemical, quenched peptide fluorescence, cherry-pick, selectivity assay for Rce1 protease inhibitor project, dose response (AID 488789)
[12] = tested on: Streptococcus sp. 'group A'; assay: Streptococcus pyogenes SK(-)GAS viability under kanamycin – luminescence, BacTiterGlo, confirmation, counter-screen for streptokinase expression inhibitor project, dose response (AID 1900); assay type: functional, organism-based
[13] = target: T5, Bcl-2-related protein A1 (Mus musculus, UniProt Q07440); assay type: functional;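 note: confirmatory dose–response counterscreen on Bfl-1, used to check hits from a UBC13 polyubiquitin inhibitor campaign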
T5 sequence (Q07440 whole entry): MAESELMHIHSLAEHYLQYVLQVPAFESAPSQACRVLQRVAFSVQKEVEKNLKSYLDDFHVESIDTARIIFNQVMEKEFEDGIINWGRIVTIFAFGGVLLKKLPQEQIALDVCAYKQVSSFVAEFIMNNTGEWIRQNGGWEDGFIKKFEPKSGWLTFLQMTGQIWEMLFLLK

[14] = fluconazole-exposed Candida albicans growth modulators – fluorescence, retest, confirmation (AID 2467); assay type: functional, cell-based
[15] = target: T6, Rac GTPase-activating protein 1 (Homo sapiens, UniProt Q9H0H5); assay: blockers of MgcRacGAP-driven Rac1 GTP hydrolysis – biochemical, ADP Hunter fluorescence, primary and confirmatory, confirmation (AID 624330); assay type: functional
T6 sequence (Q9H0H5 whole entry): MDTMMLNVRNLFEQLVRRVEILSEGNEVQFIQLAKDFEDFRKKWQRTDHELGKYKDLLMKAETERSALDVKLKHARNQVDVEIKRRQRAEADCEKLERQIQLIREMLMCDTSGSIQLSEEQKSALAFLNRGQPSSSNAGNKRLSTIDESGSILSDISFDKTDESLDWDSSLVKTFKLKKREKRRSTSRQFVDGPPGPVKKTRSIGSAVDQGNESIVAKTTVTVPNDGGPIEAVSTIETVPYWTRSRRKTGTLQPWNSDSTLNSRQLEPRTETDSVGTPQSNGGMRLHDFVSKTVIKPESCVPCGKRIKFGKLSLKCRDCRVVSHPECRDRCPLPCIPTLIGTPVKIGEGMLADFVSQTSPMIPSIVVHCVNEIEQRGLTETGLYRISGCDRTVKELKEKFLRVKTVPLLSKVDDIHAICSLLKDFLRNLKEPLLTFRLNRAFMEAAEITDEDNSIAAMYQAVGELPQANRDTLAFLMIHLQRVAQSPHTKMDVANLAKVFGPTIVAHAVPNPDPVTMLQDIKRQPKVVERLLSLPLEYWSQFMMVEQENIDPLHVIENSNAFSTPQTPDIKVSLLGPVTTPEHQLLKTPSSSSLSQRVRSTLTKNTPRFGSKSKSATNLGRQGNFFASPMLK

[16] = Cytotoxicity screening for potential Inhibitors of Bacterial Capsule Biogenesis. [Related pubchem assays (depositor defined):AID488970]; assay type: functional
[17] = target: T7, CAAX prenyl protease 2 (Homo sapiens, UniProt Q9Y256); assay: inhibition of Ras-converting CAAX protease Rce1 – biochemical, yeast membranes, quenched-peptide fluorescence, cherry-pick, dose response (AID 588849)
T7 sequence (Q9Y256 whole entry): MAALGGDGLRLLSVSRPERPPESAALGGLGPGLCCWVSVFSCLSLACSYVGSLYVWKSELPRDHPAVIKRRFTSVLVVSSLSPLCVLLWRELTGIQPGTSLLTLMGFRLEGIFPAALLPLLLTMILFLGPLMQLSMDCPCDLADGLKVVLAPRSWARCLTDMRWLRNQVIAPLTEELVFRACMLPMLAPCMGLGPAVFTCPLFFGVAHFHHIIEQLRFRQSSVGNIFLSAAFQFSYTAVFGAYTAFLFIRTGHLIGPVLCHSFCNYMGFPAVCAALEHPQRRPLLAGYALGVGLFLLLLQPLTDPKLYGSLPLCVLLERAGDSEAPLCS

[18] = target: T8, Microphthalmia-associated transcription factor (Homo sapiens, UniProt O75030); assay: reducers of TRPM1 reporter luminescence, concentration series – cell-based, SK-MEL-5, cherry-picked, set 3, MITF inhibitor project, dose response (AID 493073); assay type: functional;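 note: SK-MEL-5 melanoma cells with luciferase driven by the MITF target TRPM1 promoter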
T8 sequence (O75030 whole entry): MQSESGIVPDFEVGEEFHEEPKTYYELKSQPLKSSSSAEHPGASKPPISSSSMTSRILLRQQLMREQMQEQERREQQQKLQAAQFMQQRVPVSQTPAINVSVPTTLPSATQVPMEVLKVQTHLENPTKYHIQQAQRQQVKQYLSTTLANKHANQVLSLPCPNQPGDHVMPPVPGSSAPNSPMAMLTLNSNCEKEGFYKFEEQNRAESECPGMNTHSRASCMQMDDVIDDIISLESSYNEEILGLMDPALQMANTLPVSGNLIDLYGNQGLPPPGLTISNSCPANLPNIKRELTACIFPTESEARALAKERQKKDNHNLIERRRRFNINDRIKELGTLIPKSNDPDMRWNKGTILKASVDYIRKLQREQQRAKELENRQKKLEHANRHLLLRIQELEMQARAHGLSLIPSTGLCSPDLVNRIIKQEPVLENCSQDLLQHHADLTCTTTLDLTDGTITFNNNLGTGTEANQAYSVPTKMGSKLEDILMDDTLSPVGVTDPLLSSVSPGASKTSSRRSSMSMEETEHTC

[19] = reduction of Shn3 3'UTR-driven luciferase in osteoblasts – cell-based, Clone20 osteoblasts, firefly luciferase, cherry-picked, dose response (AID 624132); assay type: functional;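 note: firefly luciferase luminescence from reporter carrying the Shn3 3'UTR in osteoblasts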
[20] = target: Sphingosine 1-phosphate receptor 1 (Homo sapiens, UniProt P21453); assay type: functional;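 note: Tango beta-arrestin reporter U2OS cells stimulated with S1P near its EC80; inhibitor potency meaning antagonism of receptor activation by the natural agonist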
[21] = viability of PTEN-deleted HCT116 cells – cell-based, HCT116 PTEN knockout, dose response (AID 1047); assay type: functional;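 note: HCT116 colon tumor cells with PTEN knocked out; cells exposed to compound for 60 hours before readout; potency for loss of cell viability measured by luminescence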
[22] = viability of HCT116 lacking mutant beta-catenin – cell-based, human colon tumor, dose response (AID 1045); assay type: functional;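 note: HCT116 colon tumor cells with beta catenin knocked out; cells exposed to compound for 60 hours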
[23] = target: T9, Heat shock factor protein 1 (Mus musculus, UniProt P38532); assay: decrease of HSF1-responsive luciferase luminescence – cell-based, NIH3T3, dose retest, confirmation (AID 2382); assay type: functional;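 note: NIH3T3 fibroblasts with HSF1-driven luciferase reporter stressed by proteasome inhibitor MG132; luminescence from HSF1-driven luciferase expression after 8 hours of MG132 stress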
T9 sequence (P38532 whole entry): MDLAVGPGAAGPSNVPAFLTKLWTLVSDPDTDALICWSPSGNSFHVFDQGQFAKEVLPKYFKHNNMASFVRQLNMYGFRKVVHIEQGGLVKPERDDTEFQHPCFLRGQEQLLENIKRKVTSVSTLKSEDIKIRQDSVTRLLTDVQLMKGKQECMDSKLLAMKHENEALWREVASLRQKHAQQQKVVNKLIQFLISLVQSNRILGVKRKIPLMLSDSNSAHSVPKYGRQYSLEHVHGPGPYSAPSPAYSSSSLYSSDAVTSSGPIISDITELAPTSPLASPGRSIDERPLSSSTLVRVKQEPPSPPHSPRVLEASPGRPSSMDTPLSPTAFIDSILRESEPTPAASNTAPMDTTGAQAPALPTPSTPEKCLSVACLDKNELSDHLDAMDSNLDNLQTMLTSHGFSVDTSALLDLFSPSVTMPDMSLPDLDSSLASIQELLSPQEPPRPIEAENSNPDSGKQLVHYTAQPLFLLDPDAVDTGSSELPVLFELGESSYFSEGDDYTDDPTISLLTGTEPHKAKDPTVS

[24] = target: Neurotensin receptor type 1 (Homo sapiens, UniProt P30989); assay type: functional;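 note: Image-based confirmatory dose-response assay measuring agonist activity at NTR1; NTR1-expressing U2OS osteosarcoma cells imaged for beta-arrestin GFP spot formation; agonist potency where compounds increase beta-arrestin recruitment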
[25] = non-specific 3'UTR reporter inhibition in Clone20-Shn3RL – cell-based, Renilla luciferase, cherry-picked, counter-screen for Shn3 inhibitor project, dose response (AID 624133); assay type: functional
[26] = loss of viability in HepG2 cells – cell-based, CellTiter-Glo, cherry-picked, cytotoxicity control for Shn3 inhibitor project, dose response (AID 624134); assay type: functional
[27] = target: T10, Sphingosine 1-phosphate receptor 4 (Homo sapiens, UniProt O95977); assay: Fluorescence dose response cell-based high throughput screening assay for antagonists of the Sphingosine 1-Phosphate Receptor 4 (S1P4). [Related pubchem assays: 1524 (Confirmation in triplicates.), 1510 (Primary screen.)]; assay type: functional
T10 sequence (O95977 whole entry): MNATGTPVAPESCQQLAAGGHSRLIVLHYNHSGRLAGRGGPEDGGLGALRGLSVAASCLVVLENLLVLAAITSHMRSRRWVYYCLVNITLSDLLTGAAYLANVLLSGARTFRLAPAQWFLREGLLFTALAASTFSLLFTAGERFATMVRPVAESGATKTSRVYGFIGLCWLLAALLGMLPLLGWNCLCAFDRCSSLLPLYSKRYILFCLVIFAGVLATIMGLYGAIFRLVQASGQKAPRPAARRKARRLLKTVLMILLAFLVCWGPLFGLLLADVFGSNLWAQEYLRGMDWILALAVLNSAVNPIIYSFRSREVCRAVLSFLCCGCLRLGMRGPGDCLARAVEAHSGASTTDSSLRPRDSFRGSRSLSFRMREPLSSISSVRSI

Sequence of Sphingosine 1-phosphate receptor 1 (P21453 whole entry): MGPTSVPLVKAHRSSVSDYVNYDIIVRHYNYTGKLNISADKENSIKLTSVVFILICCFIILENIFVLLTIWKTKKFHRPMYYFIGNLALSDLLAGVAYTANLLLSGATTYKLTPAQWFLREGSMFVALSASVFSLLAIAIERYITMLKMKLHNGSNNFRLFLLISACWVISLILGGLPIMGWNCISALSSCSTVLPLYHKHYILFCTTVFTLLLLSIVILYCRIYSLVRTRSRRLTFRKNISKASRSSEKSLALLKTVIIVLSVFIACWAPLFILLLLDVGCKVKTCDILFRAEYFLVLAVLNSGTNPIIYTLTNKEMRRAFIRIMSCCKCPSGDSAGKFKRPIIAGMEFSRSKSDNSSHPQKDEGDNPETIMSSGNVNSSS
Sequence of Neurotensin receptor type 1 (P30989 whole entry): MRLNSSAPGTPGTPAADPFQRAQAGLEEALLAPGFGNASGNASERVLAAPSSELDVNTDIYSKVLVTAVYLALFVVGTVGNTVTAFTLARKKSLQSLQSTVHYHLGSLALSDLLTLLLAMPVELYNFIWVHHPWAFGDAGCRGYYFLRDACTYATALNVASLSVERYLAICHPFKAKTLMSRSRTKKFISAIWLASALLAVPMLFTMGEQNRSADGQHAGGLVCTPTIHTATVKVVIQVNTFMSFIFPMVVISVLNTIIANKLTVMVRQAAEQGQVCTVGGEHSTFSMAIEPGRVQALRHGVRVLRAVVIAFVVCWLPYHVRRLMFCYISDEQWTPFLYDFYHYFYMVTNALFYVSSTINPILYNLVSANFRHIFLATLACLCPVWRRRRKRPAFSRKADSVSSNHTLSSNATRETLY
Sequence of Trypsin (P00761 whole entry): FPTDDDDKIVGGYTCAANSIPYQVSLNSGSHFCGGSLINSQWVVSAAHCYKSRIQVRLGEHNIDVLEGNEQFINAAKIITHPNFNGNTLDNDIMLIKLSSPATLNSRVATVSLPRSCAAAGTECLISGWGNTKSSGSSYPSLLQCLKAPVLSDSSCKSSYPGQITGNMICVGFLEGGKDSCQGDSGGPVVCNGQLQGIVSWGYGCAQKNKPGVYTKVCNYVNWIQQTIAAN

## N=C(N)c1ccc(/C=C/c2ccc(C(=N)N)cc2O)cc1
[1]
  EC50: 4.77 µM (active)
[2]
  EC50: > 150 µM (not active)
[3]
  EC50: > 50 µM (active)
[4]
  AC50: 0.708 µM (active)
[5]
  AC50: 37.7 µM (active)
[6]
  EC50: > 99 µM (inactive)
[7]
  IC50: 2.8 µM (active)
[8]
  IC50: 3.61 µM (active)
[9]
  EC50: > 150 µM (inactive)
[10]
  EC50: 20 µM (active)
[11]
  AC50: 3.15 µM (active)
[12]
  EC50: 1.43 µM (active)
[13]
  IC50: > 20 µM (inactive)
[14]
  EC50: 0.529 µM (active)
[15]
  IC50: 39 µM (active)
[16]
  CC50: > 100 µM (active)
[17]
  AC50: > 100 µM (inactive)

## COc1ccc(Oc2cc(NC(=O)c3nn(C)cc3[N+](=O)[O-])cc([N+](=O)[O-])c2)cc1
[18]
  AC50: 8.94 µM (active)
[19]
  AC50: 0.813 µM (active)
[20]
  IC50: 17.4 µM (not active)
[21]
  EC50: 0.219 µM (active)
[22]
  EC50: 0.17 µM (active)
[23]
  EC50: 8.9 µM (inconclusive)
[24]
  EC50: 8.91 µM (active)
[25]
  AC50: 5.01 µM (active)
[26]
  AC50: 21.1 µM (active)
[27]
  IC50: 1.08 µM (active)
